pIC50: −log10 of the molar value.
What was measured:
[1] = Inhibition of copper-catalyzed oxidation of ascorbic acid (Cu2+ chelating activity); conditions: 500 nmol/L CuCl2, 500 μmol/L ascorbic acid, phosphate buffer pH 7.4, 60 minutes; read-out: IC50, concentration that inhibited the rate of AA oxidation by 50%
Experimental: In vitro measurement of the kinetics of inhibition of copper-catalyzed oxidation of ascorbic acid was performed according to the methods of Price et al., J. Biol. Chem. 276:48967-48972, 2001. Briefly, CuCl2 and various concentrations of inhibitor compounds were pre-incubated in chelex-treated 20 mmol/L phosphate buffer, pH 7.4, for 5 minutes. Ascorbic acid then was added (50 μL of 10 mmol/L in water) to initiate the reaction (1 mL total reaction volume). The final concentrations of CuCl2 and ascorbic acid in the reaction were 500 nmol/L and 500 μmol/L, respectively. Aliquots (135 μL) were removed at 0 and 60 minutes and transferred to autoinjector vials containing 15 μL of 10 mmol/l DTPA. Samples were analyzed by reversed phase HPLC on an XTerra™ RP18 column (250 mm×4.6 mm, 5 μm) with an XTerra™ RP18 5 μm guard column using a Waters® 2690 Separator Module equipped with auto-injector and Millenium® 32 software. Solvents and gradient were all used as described in Dillon et al., Life Sci. 72:1583-1594, 2003. The absorbance of ascorbic acid was measured at 244 nm and the peak area was obtained to estimate the percent of ascorbic acid remaining versus time. For each inhibitor compound, the concentration that inhibited the rate of AA oxidation by 50% (IC50), was calculated with respect to the control using Prism™ software.

[2] = system: diabetic and hyperlipidemic rats; conditions: diabetic and hyperlipidemic rats (Degenhardt et al.; Alderson et al.); cited from earlier work
[3] = Superoxide production, methylglyoxal with N-α-acetyl-lysine, WST-1 assay
Experimental: The superoxide radical scavenging activity of the compounds was evaluated using the WST-1 method described in Ukeda et al., Anal. Sci. 18:1151-1154, 2002. Briefly, methylglyoxal, was incubated with or without N-α-acetyl-lysine in 0.05 M chelex-treated sodium phosphate buffer, pH 7.4, in the presence of various concentrations of the inhibitor compounds. The production of superoxide was monitored spectrophotometrically at 438 nm, and compared with superoxide dismutase and Tiron, two known superoxide radical scavengers.

[4] = system: rats with diabetic nephropathy; conditions: rats with diabetic nephropathy (Forbes et al.); cited from earlier work
Human LDL [5] = assay: Cu++-mediated oxidation of LDL, TBARS (Example 9); conditions: 5 μM CuCl2, 10-250 μM compound, 5 hours, 37° C.
Experimental: The ability of the LR compounds to inhibit lipid peroxidation was tested using Cu^++-mediated lipid oxidation, a common in vitro model for studies on lipoxidative modifications of proteins. The effects of the LR compounds on lipid peroxidation were studied using Cu^++-mediated oxidation of LDL. Human LDL (50 μg of protein/mL) was incubated at 37° C. in chelex-treated PBS buffer alone or in the presence of 5 μM CuCl2 or 5 μM CuCl2 plus various concentrations of the inhibitor compounds (10-250 μM). After 5 hours of incubation, the amount of thiobarbituric acid reactive substances (expressed as malondialdehyde (MDA) equivalents) generated in the reaction mixture was calculated according to methods described by Dillon et al., Life Sci. #72:1583-1594, 2003. Briefly, aliquots from each sample were precipitated with 20% trichloroacetic acid, centrifuged and an equal volume of 1% thiobarbituric acid was added to the supernatant. The samples then were heated to 95° C. for 10 minutes, and upon cooling, the absorbance was read at 532 nm. Hydrolyzed tetraethoxypropane was used as a standard for the MDA equivalent calculation.

Human LDL [6] = assay: Cu++-mediated LDL oxidation, TBARS (Example 16); conditions: 250 μM compound, followed for 5 hours; control lag phase about 2 hours
Experimental: Human LDL was isolated from plasma of healthy donors by single vertical spin centrifugation (see Chung et al., Methods Enzymol. 128:181-209, 1986) and used within 24-48 hours of preparation. LDL (50 μg/mL) was incubated at 37° C. in 50 mM chelex-treated phosphate buffer, pH 7.4, alone or in the presence of 5 μM CuCl2 or 5 μM CuCl2 plus various concentrations of the LR compounds. After 5 hours of incubation, aliquots from each reaction mixture were removed for measurement of thiobarbituric acid-reacting substances (TBARS) as described in Satoh, Clin. Chim. Acta 90:37-43, 1978. Briefly, 250 μL of 20% trichloroacetic acid was added to 500 μL of sample aliquot, followed by 750 μL of 1% […]. The samples then were vortexed and incubated in a boiling water bath for 10 minutes. Upon cooling, the samples were centrifuged for 5 minutes at 5000 rpm. Absorbance of the supernatant was taken at 532 nm, and expressed as MDA equivalents using 1,1,3,3-tetramethoxypropane as standards. For fatty acid oxidation studies, linoleic acid (5#mM) was incubated alone or in the presence of 1 mM LR compound in […] phosphate buffer, pH 7.4, for 7 days at 37° C. Aliquots from each reaction mixture were withdrawn periodically for measurement of TBARS as described above.
Results are shown in FIG. 23A, where values are provided as means±SD of two independent experiments (n=4 for each treatment). In separate experiments, the time course for the oxidative modification fo LDL by Cu^++ in the presence of 250 μM compound was followed for 5 hours and aliquots for each time interval were assayed for TBARS. Values in FIG. 23B are means±SD of two independent experiments (n=4 per treatment).

pIC50 [1] | Structure (SMILES) | lipid-lowering effects [2] | effect on superoxide production [3] | increase in CML-AGE and nitrotyrosine staining [4] | inhibition of Cu++-mediated LDL oxidation (lipid peroxidation) (Human LDL [5]) | inhibition of Cu++-mediated LDL oxidation (lipid peroxidation) (Human LDL [5]; listed as pyridoxamine) | time course of Cu++-mediated oxidation of LDL (Human LDL [6])
2.56 | N=C(N)NN [AG, aminoguanidine, reference compound] | lipid-lowering effects | little or no effect | attenuated |  |  | 
 | Cc1ncc(CO)c(CN)c1O [PM, pyridoxamine, reference compound] | lipid-lowering effects |  |  | no effect | minimal effects | no effect
 | CCOC(=O)[C@H](CCc1ccccc1)N[C@@H](C)C(=O)N1[C@H](C(=O)O)C[C@@H]2CCC[C@@H]21 [ramipril] |  |  | attenuated |  |  | 
